This passage reports IC50 results from US9944647B2 (Incyte Corporation, priority 2015, dated 2018).

For orientation: IC50 means the concentration at which inhibition is half-maximal. Low values mean higher potency, high ones lower potency.

Bounds are passed on as bounds.

The target in the assay is LSD-1 enzyme (Homo sapiens (Human), UniProt O60341). In words: LANCE LSD1/KDM1A demethylase assay (LSD1 histone demethylase biochemical assay). The conditions noted are these: 1 nM LSD-1 enzyme, 1 hour preincubation at 25° C., Biotin-labeled Histone H3 peptide substrate.
Regarding `CCOc1ccc(-c2c(-c3ccc(C#N)cc3)nc(N3CCC(N(C)C)CC3)n3ccnc23)cn1` [Example 117, 4-[5-[4-(dimethylamino)piperidin-1-yl]-8-(6-ethoxypyridin-3-yl)imidazo[1,2-c]pyrimidin-7-yl]benzonitrile], the IC50 is not above 50 nM.

`CN(C)C1CCN(c2nc(-c3ccc(C#N)cc3)c(-c3cnc4c(ccn4C)c3)c3nccn23)CC1` [Example 125, 4-[5-[4-(dimethylamino)piperidin-1-yl]-8-(1-methyl-1H-pyrrolo[2,3-b]pyridin-5-yl)imidazo[1,2-c]pyrimidin-7-yl]benzonitrile] yielded an IC50 not above 50 nM.

Turning to `CCN1CCC[C@@H](COc2nc(-c3ccc(C#N)cc3)c(-c3ccc(C)cc3CO)c3nccn23)C1` [Example 119, 4-{5-{[(3R)-1-ethylpiperidin-3-yl]methoxy}-8-[2-(hydroxymethyl)-4-methylphenyl]imidazo[1,2-c]pyrimidin-7-yl}benzonitrile], the IC50 is 50 to 500 nM.

On to `CN1CCC[C@@H](COc2nc(-c3ccc(C#N)cc3)c(-c3ccc4c(c3)CC(=O)N4C)c3nccn23)C1` [Example 6, 4-(8-(1-methyl-2-oxo-2,3-dihydro-1H-indol-5-yl)-5-{[(3R)-1-methylpiperidin-3-yl]methoxy}imidazo[1,2-c]pyrimidin-7-yl)benzonitrile], for which the IC50 is 50 to 500 nM.

In the case of `Cn1c(=O)oc2cc(-c3c(-c4ccc(C#N)cc4)nc(OC[C@@H]4CCCN(CC(C)(C)O)C4)n4ccnc34)ccc21` [Example 135, 4-[5-{[(3R)-1-(2-hydroxy-2-methylpropyl)piperidin-3-yl]methoxy}-8-(3-methyl-2-oxo-2,3-dihydro-1,3-benzoxazol-6-yl)imidazo[1,2-c]pyrimidin-7-yl]benzonitrile], the IC50 lay in the range of 50 to 500 nM.

Consider `CN1C(=O)CCc2ccc(-c3c(-c4ccc(C#N)cc4)nc(N4CCC(N(C)C)CC4)n4ccnc34)cc21` [Example 131, 4-[5-[4-(dimethylamino)piperidin-1-yl]-8-(1-methyl-2-oxo-1,2,3,4-tetrahydroquinolin-7-yl)imidazo[1,2-c]pyrimidin-7-yl]benzonitrile], for which the IC50 was in the range of 50 to 500 nM.

`CN1CCC[C@@H](COc2nc(-c3ccc(C#N)cc3)c(-c3ccc(N4CCCC4)nc3)c3nccn23)C1` [Example 5, 4-[5-{[(3R)-1-methylpiperidin-3-yl]methoxy}-8-(6-pyrrolidin-1-ylpyridin-3-yl)imidazo[1,2-c]pyrimidin-7-yl]benzonitrile]: the IC50 was not above 50 nM.

In turn, `CN1CCC[C@@H](COc2nc(-c3ccc(C#N)cc3)c(-c3cnc4c(c3)oc(=O)n4C)c3nccn23)C1` [Example 61, 4-(8-(3-methyl-2-oxo-2,3-dihydro[1,3]oxazolo[4,5-b]pyridin-6-yl)-5-{[(3R)-1-methylpiperidin-3-yl]methoxy}imidazo[1,2-c]pyrimidin-7-yl)benzonitrile] showed an IC50 of 50 to 500 nM.

On to `Cc1ncc(-c2c(-c3ccc(C#N)cc3)nc(N3CCC(N(C)C)CC3)n3ccnc23)cc1Cl` [Example 103, 4-{8-(5-chloro-6-methylpyridin-3-yl)-5-[4-(dimethylamino)piperidin-1-yl]imidazo[1,2-c]pyrimidin-7-yl}benzonitrile], for which the IC50 was not above 50 nM.

On to `CN1CCC[C@@H](COc2nc(-c3ccc(C#N)cc3)c(-c3ccc(CO)c(F)c3)c3nccn23)C1` [Example 31, 4-(8-[3-fluoro-4-(hydroxymethyl)phenyl]-5-{[(3R)-1-methylpiperidin-3-yl]methoxy}imidazo[1,2-c]pyrimidin-7-yl)benzonitrile], for which the IC50 is not above 50 nM.

As to `COc1ncc(-c2c(-c3ccc(C#N)cc3)nc(N3CCC(N(C)C)CC3)n3ccnc23)cc1C#N` [Example 105, 5-{7-(4-cyanophenyl)-5-[4-(dimethylamino)piperidin-1-yl]imidazo[1,2-c]pyrimidin-8-yl}-2-methoxynicotinonitrile], the IC50 is not above 50 nM.
